Here are results for five compounds from ChEMBL document CHEMBL1201862, “PubChem BioAssay data set” (2004).

Activity calls are given as the source filed them.

Test [1] in a line: A small molecule screen for inhibitors of the PhoP region in Salmonella typhi (5) using purified and synthesized compounds. [Related pubchem assays (depositor defined):AID1850, AID1864, AID1985, AID2252, AID2384, AID2612, AID2811, AID434995]. Type of test: functional.
The target in test [2] is Glucose-6-phosphate 1-dehydrogenase (Homo sapiens, UniProt P11413). The test can be described thus: inhibition of Homo sapiens G6PD, dose series – biochemical, fluorescence, selectivity assay for P. falciparum G6PD inhibitor project, dose response (AID 504792). It counts as functional.
Test [3] has as its target T1, Runt-related transcription factor 1/Core-binding factor subunit beta (Homo sapiens, UniProt Q01196+Q13951). The test can be described thus: Confirmation of compounds inhibiting the binding between the RUNX1 Runt domain and CBFb-SMMHC via a fluorescence resonance energy transfer (FRET) assay. [Related pubchem assays (depositor defined):AID1434, AID1438, AID1496, AID1550, AID1645]. It counts as protein assay.

Test [4] has as its target T1, Runt-related transcription factor 1/Core-binding factor subunit beta. The test is described as follows: disruptors of Runt domain/CBFb-SMMHC interaction – biochemical, FRET, Cerulean-Runt, Venus-CBFb-SMMHC, uHTS, […] (AID 1434). Type of test: protein assay.
Test [5] deals with T2, Polyadenylate-binding protein 1 (Homo sapiens, UniProt P11940). The test can be described thus: MLLE binding blockers, Cy5 peptide tracer – biochemical, fluorescence polarization, Cy5-PAM2 peptide, secondary, miRNA deadenylation inhibitor project, dose response (AID 602260). Type of test: functional. Particulars: read-out: IC50_Mean. In general terms: In fluorescence polarisation assays a small probe gives low polarisation when free and higher when bound to something large.
T2 sequence (P11940 whole entry): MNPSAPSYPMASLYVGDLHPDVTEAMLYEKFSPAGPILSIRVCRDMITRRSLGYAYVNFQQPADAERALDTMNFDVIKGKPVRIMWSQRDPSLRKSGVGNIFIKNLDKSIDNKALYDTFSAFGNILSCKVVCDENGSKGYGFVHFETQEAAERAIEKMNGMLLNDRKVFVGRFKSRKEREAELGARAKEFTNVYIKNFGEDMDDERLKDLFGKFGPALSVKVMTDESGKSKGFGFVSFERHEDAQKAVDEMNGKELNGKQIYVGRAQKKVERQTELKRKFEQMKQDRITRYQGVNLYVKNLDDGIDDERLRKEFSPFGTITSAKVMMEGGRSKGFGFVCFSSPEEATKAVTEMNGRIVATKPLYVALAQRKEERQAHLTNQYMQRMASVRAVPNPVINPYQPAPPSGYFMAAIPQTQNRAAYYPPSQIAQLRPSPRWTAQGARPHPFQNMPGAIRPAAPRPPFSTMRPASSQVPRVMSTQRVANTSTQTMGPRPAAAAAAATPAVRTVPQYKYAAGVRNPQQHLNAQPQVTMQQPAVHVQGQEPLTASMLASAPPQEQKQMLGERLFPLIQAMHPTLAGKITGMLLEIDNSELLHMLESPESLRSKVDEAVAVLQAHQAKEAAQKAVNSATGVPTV

The target in test [6] is Aspartyl aminopeptidase (Plasmodium falciparum 3D7, UniProt Q8I2J3).
Test [7] deals with Induced myeloid leukemia cell differentiation protein Mcl-1 (Homo sapiens, UniProt Q07820). It counts as functional.
Test [8] deals with T3, Mannose-6-phosphate isomerase (Homo sapiens, UniProt P34949).
T3 sequence (P34949 whole entry): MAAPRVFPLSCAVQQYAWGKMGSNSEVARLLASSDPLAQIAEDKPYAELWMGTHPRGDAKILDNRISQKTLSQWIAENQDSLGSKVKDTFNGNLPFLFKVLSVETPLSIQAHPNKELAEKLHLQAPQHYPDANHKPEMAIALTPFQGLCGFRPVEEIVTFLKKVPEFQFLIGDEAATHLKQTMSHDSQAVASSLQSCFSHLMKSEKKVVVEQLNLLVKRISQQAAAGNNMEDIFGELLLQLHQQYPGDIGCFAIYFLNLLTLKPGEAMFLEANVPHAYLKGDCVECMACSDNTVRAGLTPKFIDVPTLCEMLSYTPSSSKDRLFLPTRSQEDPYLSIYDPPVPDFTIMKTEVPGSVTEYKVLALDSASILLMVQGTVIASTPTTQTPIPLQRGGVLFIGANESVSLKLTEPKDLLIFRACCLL
The test can be described thus: MPI inhibition at elevated mannose 6-phosphate – biochemical, fluorescence intensity, high mannose 6-phosphate, primary screen (AID 1220).

Test [9] addresses Eukaryotic translation initiation factor 4E (Mus musculus, UniProt P63073). The test can be described thus: blockers of eIF4G binding by eIF4E – biochemical, TR-FRET, dose response (AID 855).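 Also: potency for disrupting eIF4E binding to eIF4GI seen as loss of FRET.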 Type of test: functional. For orientation: TR-FRET usually uses a lanthanide donor and a delayed reading to cut background.
For test [10], the target named is Procathepsin L (Homo sapiens, UniProt P07711).
Test [11] can be described thus: viability loss in THP-1 monocytes – THP-1 cells, cytotoxicity control for Vif-APOBEC3G degradation inhibitor project, dose response (AID 1117359). It counts as functional. The conditions noted are these: THP-1.
The target in test [12] is T1, Runt-related transcription factor 1/Core-binding factor subunit beta. The test is described as follows: Confirmation of compounds inhibiting the binding between the RUNX1 Runt domain and CBFb-SMMHC via a time resolved fluorescence resonance energy transfer (TR-FRET) assay. [Related pubchem assays (depositor defined):AID1434, AID1438, AID1496, AID1560, AID1645]. It counts as protein assay.

Test [13] deals with T2, Polyadenylate-binding protein 1. The test is described as follows: MLLE domain peptide-binding blockers, IC50 – biochemical, fluorescence polarization, FITC-PAM2 peptide, dose response (AID 602259). Particulars: read-out: IC50_Mean. It counts as functional.
Test [14] concerns the target Voltage-dependent T-type calcium channel subunit alpha-1H (Homo sapiens, UniProt O95180). The test can be described thus: human CACNA1H calcium influx blockade – cell-based, synthetic library set 2, HEK293 HH8, Fluo-4, SAR follow-up (AID 493023). It counts as functional.
Test [15] concerns the target T4, G-protein coupled receptor 35 (Homo sapiens, UniProt Q9HC97). The test is described as follows: SAR analysis of Antagonists of the GPR35 Receptor using an Image-Based Assay - Set 6. [Related pubchem assays (depositor defined):AID2013, AID2026]. Type of test: functional.
In test [16] the target is T5, Cannabinoid receptor 2 (Homo sapiens, UniProt P34972). The test can be described thus: SAR analysis of agonists of the Cannabinoid Receptor 2 using an Image-Based Assay - Set 3. [Related pubchem assays (depositor defined):AID2013, AID2026]. It counts as functional.
T5 sequence (P34972 whole entry): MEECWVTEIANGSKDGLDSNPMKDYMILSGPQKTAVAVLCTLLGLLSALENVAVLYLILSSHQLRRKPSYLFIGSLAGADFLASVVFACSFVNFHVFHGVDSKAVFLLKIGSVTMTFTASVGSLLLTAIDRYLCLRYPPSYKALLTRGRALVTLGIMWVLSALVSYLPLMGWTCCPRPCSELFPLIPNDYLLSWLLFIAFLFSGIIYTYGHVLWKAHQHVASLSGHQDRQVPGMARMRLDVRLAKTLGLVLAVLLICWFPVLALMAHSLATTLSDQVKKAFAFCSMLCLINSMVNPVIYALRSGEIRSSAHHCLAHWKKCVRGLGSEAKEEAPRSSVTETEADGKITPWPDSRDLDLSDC
The target in test [17] is T4, G-protein coupled receptor 35. The test can be described thus: SAR analysis of Agonists of the GPR35 Receptor using an Image-Based Assay - Set 4. [Related pubchem assays (depositor defined):AID2013, AID2026]. It counts as functional.
Test [18] deals with T5, Cannabinoid receptor 2. The test is described as follows: SAR analysis of antagonists of the Cannabinoid Receptor 2 using an Image-Based Assay - Set 3. [Related pubchem assays (depositor defined):AID2013, AID2026]. It counts as functional.
Test [19] deals with T6, Cannabinoid receptor 1 (Homo sapiens, UniProt P21554). The test is described as follows: SAR analysis of agonists of the Cannabinoid Receptor 1 using an Image-Based Assay - Set 4. [Related pubchem assays (depositor defined):AID2013, AID2026]. Type of test: functional.
T6 sequence (P21554 whole entry): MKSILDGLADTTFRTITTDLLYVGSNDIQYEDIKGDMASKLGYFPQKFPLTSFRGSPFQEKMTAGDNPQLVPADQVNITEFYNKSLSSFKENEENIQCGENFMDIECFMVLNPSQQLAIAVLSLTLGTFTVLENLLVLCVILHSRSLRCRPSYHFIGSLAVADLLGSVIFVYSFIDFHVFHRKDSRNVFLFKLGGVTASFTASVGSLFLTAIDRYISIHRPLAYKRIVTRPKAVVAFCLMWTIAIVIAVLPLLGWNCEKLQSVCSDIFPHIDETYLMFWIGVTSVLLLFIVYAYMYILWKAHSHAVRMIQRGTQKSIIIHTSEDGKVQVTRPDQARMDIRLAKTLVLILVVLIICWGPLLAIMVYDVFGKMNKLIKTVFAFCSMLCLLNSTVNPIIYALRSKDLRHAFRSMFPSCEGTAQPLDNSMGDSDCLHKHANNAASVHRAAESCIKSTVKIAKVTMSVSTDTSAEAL
The target in test [20] is T6, Cannabinoid receptor 1. The test can be described thus: SAR analysis of antagonists of the Cannabinoid Receptor 1 using an Image-Based Assay - Set 4. [Related pubchem assays (depositor defined):AID2013, AID2026]. Type of test: functional.
In test [21] the target is G-protein coupled receptor 55 (Homo sapiens, UniProt Q9Y2T6). The test is described as follows: SAR Analysis of Selective Antagonists of GPR55 using an Image-Based Assay - Set 4. [Related pubchem assays (depositor defined):AID2013, AID2026]. It counts as functional.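 Also: antagonism of response to 5 µM lysophosphatidylinositol agonist.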
The target of test [22] is T7, Ubiquitin-conjugating enzyme E2 N (Homo sapiens, UniProt P61088).
T7 sequence (P61088 whole entry): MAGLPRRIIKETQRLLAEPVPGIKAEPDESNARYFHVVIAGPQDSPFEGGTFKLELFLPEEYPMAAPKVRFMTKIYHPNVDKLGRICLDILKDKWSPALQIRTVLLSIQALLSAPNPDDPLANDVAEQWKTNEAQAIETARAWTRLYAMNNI
Type of test: functional.

Test [23] relates to Streptococcus. The test can be described thus: GAS UMAA2166 growth inhibition – luminescence, BacTiterGlo, counter-screen for streptokinase expression inhibitor project, dose response (AID 1915).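 Also: potency for reduction of bacterial viability or growth.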 It counts as functional, organism-based.
A short description of test [24]: Luminescence Cell-Based Dose Response HTS to Identify Inhibitors of 5'UTR Stem-Loop Driven Prion Protein mRNA Translation in H4 Neuroglioblastoma Cells. [Related pubchem assays: 1827 (Project Summary), 1813 (Primary HTS)]. It counts as functional.
Test [25] addresses T8, Bcl-2-related protein A1 (Mus musculus, UniProt Q07440).
T8 sequence (Q07440 whole entry): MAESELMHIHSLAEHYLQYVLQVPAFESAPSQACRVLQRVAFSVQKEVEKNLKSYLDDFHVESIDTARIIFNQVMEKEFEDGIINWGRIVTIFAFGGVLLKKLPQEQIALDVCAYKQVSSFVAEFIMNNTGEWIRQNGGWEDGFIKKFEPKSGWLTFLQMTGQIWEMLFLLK
Type of test: functional.

Test [26] has as its system Streptococcus sp. 'group A'. The test is described as follows: Streptococcus pyogenes SK(-)GAS viability under kanamycin – luminescence, BacTiterGlo, confirmation, counter-screen for streptokinase expression inhibitor project, dose response (AID 1900). It counts as functional, organism-based. (In general: The purpose of a counterscreen is to sort out artefacts and off-target activity.)

Test [27] deals with T9, Apoptotic protease-activating factor 1 (Homo sapiens, UniProt O14727).
T9 sequence (O14727 whole entry): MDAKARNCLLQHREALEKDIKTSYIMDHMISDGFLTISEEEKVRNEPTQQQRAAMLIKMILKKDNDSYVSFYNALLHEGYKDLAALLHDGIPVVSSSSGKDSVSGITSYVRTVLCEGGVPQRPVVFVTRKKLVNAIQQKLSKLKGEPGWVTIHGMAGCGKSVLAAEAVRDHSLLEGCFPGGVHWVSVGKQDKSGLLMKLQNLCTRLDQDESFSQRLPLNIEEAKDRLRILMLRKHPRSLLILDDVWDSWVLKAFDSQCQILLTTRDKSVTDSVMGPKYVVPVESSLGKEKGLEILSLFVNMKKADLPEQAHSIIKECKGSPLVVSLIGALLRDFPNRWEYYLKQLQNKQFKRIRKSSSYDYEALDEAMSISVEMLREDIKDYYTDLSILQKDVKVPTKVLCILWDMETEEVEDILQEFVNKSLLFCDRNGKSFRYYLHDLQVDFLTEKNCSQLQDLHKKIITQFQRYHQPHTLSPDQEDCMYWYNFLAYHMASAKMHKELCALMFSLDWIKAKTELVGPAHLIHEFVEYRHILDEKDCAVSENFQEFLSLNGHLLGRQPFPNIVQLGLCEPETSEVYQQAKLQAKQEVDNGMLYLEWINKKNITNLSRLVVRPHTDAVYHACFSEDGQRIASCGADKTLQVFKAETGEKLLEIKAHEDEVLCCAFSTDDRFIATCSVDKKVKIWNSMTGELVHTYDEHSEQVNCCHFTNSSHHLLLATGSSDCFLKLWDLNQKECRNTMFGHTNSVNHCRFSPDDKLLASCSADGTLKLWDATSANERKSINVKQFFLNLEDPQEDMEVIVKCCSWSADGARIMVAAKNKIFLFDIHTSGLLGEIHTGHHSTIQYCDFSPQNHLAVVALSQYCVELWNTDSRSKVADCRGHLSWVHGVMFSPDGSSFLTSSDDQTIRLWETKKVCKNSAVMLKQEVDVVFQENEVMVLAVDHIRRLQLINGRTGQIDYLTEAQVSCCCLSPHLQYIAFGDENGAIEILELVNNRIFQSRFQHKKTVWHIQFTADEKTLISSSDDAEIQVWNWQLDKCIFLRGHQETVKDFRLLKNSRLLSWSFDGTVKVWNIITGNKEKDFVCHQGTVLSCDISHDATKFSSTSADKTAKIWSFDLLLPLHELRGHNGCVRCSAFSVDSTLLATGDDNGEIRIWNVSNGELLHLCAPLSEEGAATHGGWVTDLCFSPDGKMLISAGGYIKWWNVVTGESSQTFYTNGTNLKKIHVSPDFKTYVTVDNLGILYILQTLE
It counts as functional.

The target of test [28] is Nonstructural protein 1 (Influenza A virus, UniProt Q194T2). Type of test: functional, Influenza A virus (A/California/07/2009(H1N1)).
Nonstructural protein 1, sequence (Q194T2 whole entry): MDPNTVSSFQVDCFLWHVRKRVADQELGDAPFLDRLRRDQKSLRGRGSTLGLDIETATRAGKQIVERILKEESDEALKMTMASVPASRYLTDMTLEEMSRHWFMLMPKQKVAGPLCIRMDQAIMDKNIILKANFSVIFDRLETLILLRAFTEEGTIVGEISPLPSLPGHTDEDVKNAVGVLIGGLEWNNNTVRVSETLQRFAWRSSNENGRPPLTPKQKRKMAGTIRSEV
For test [29], the target named is T7, Ubiquitin-conjugating enzyme E2 N. It counts as functional. This is another data set of the same source.
Test [30] in a line: luciferase reporter signal suppression in cells – H4 neuroglioma cells, luminescence, dose response (AID 1990). Type of test: functional, cell-based.
Test [31] is described as follows: alpha-synuclein stem-loop luciferase translation blockers – H4 neuroglioma cells, luminescence, confirmation (AID 1988). Type of test: functional, cell-based.

As usually defined, the CC50 is the concentration giving 50% cytotoxicity. The term EC50 denotes the midpoint of the concentration-response curve.

T1 sequence (Q01196 whole entry, the tested form may be a part): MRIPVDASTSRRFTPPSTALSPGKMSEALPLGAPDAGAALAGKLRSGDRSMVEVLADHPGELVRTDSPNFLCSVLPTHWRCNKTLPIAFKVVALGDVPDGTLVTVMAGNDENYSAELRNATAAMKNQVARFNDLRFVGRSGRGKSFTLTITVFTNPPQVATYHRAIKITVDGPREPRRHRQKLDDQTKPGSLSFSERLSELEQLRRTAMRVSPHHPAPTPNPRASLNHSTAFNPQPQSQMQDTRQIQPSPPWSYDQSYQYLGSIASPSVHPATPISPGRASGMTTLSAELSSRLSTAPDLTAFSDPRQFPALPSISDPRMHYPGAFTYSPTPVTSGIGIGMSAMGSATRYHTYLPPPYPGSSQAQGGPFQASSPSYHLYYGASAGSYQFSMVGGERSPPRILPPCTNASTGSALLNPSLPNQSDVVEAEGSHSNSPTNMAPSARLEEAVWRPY
T1 sequence (Q13951 whole entry, the tested form may be a part): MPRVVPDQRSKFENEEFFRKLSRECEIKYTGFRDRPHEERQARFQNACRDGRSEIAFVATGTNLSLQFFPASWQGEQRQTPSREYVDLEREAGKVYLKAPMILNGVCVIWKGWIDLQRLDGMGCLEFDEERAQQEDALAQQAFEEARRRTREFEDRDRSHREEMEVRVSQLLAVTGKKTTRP
T4 sequence (Q9HC97 whole entry): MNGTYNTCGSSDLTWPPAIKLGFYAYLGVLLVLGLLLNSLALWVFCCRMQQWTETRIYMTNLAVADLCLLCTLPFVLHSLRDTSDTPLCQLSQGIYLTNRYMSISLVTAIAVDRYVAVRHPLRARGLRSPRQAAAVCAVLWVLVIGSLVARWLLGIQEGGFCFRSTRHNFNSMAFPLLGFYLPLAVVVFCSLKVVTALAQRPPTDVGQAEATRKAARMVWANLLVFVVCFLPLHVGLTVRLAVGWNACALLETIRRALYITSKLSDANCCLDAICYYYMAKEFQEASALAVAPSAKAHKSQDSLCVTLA
Voltage-dependent T-type calcium channel subunit alpha-1H, sequence (O95180 whole entry): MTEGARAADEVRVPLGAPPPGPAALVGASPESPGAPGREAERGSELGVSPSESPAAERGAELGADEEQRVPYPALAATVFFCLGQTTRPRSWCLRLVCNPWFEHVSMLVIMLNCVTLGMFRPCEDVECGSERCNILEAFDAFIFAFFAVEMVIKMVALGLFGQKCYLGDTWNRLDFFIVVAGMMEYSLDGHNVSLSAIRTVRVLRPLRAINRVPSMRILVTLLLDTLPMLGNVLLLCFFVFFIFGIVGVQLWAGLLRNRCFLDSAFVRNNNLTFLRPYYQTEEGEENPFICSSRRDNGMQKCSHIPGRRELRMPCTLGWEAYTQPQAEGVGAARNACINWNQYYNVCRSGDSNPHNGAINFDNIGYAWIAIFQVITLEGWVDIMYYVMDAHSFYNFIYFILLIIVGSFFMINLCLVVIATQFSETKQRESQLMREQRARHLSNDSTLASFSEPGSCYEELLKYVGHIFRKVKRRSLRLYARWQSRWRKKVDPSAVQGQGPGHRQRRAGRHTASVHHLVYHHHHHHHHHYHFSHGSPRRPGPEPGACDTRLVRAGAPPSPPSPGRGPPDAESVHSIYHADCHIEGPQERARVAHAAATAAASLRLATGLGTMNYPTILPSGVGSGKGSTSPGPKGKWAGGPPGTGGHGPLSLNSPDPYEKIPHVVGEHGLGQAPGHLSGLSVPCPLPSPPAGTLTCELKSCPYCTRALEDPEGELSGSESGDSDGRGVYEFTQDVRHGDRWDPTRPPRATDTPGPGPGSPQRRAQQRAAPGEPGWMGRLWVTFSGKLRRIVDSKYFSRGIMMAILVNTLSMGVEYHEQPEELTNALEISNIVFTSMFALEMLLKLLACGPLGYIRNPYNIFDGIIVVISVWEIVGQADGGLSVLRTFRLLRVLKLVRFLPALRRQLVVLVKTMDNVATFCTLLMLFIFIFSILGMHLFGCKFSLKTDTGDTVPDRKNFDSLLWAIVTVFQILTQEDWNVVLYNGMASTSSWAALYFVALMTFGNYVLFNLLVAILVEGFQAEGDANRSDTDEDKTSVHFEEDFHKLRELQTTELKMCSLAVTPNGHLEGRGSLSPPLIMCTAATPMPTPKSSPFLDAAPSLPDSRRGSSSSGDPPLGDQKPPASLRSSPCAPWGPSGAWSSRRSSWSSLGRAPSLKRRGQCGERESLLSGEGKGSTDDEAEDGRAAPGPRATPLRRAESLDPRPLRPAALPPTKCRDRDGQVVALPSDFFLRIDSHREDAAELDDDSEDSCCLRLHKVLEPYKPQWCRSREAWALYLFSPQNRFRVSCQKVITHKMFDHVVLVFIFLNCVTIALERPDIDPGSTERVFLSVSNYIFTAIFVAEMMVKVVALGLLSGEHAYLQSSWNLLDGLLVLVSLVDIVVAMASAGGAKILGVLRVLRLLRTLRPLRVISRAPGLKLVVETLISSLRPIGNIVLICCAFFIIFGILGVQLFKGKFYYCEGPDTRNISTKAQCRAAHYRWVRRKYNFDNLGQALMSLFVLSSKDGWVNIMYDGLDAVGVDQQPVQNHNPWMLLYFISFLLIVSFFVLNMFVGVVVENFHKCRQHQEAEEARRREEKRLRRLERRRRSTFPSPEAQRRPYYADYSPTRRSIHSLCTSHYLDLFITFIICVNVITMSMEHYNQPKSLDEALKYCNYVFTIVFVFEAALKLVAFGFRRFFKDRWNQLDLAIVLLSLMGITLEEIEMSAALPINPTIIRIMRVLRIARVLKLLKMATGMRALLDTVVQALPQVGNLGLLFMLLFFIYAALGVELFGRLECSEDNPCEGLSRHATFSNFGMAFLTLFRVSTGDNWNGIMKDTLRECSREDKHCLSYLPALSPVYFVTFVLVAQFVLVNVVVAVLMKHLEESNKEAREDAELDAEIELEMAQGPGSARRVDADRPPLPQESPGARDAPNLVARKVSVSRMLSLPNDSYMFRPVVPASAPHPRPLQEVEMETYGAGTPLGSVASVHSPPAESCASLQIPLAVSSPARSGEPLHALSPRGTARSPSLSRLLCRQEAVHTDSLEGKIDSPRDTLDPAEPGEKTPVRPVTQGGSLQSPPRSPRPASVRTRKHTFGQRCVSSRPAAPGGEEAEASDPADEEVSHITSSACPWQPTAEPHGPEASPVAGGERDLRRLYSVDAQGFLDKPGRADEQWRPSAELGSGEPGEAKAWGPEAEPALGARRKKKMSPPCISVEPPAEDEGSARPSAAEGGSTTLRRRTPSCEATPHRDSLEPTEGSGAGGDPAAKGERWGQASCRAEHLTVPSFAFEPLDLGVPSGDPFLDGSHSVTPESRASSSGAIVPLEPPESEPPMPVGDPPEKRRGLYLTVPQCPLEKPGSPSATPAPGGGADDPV

For the compound `O=C1C2=C(Nc3ccccc3SC2c2cccnc2)c2ccccc21` (stereo unspecified), in test [1], the IC50 is > 150 µM (active).

`CN1CCc2cccc3c2[C@@H]1Cc1ccc(O)c(O)c1-3`: the IC50 is 38.4 µM (inactive) in [2]; 8.48 µM (active) in test [3]; 7.12 µM (active) in [4]; > 66 µM (inactive) in test [5]; 3.1 µM (active) in test [6]; < 0.4 µM (active) in [7]. Also, the IC50 in test [8] was 24.9 µM (active); in [9] it was > 64 µM (inactive); in test [10], > 59.6 µM (not active); in test [12] it was 17.8 µM (active); in test [13], > 66 µM (inactive). Besides, the CC50 in test [11] was 15 µM (active).

For `O=C(NC[C@@H]1[C@H]2CN(Cc3ccccc3)C[C@@H]12)c1cc(Cl)cc(Cl)c1`, the EC50 in test [14] is 1.5 µM (active).

For the compound `Cc1ccc2nc(-c3ccccn3)cc(C(=O)Nc3ccc(S(=O)(=O)N4CCOCC4)cc3)c2c1`, the IC50 in test [15] was > 32 µM (inactive); in [18], > 32 µM (inactive); in test [20] it was 5.37 µM (active); in test [21], > 32 µM (inactive). The EC50 in test [16], in test [17] and in test [19] was > 32 µM (inactive) in each case.

With `N=C(N)N/N=C/c1ccc(OCc2ccccc2)c(OCc2ccccc2)c1`, the IC50 in test [22] is 5.05 µM (active); in test [25], 16 µM (active); in test [27] it was > 100 µM (inactive); in [28], 49 µM (active); in test [29], 6.15 µM (active). The EC50 in test [23] was 8.86 µM (active); in [24], > 120 µM (not active); in test [26], 5.75 µM (active); in test [30] it was 8.78 µM (active); in test [31] it was 19.9 µM (active).
